# Source: patent US7902229B2, “Anthranilamide pyridinureas as vascular endothelial growth factor (VEGF) receptor kinase inhibitors” (Bayer Schering Pharma AG, priority 2004, dated 2011)
# What was measured:
# [1] = molecular target: T1, human Cytochrome P 450 isoenzyme 2C19 (Homo sapiens, UniProt P33261); assay: Cytochrome P450 Inhibition (2C19); type: in vitro ADME; settings: baculovirus/insect cell-expressed human isoenzyme, according to Crespi et al.; read-out: IC50 CYP 2C19
# T1 construct: host or cells: baculovirus/insect cells
# T1 sequence (P33261 whole entry): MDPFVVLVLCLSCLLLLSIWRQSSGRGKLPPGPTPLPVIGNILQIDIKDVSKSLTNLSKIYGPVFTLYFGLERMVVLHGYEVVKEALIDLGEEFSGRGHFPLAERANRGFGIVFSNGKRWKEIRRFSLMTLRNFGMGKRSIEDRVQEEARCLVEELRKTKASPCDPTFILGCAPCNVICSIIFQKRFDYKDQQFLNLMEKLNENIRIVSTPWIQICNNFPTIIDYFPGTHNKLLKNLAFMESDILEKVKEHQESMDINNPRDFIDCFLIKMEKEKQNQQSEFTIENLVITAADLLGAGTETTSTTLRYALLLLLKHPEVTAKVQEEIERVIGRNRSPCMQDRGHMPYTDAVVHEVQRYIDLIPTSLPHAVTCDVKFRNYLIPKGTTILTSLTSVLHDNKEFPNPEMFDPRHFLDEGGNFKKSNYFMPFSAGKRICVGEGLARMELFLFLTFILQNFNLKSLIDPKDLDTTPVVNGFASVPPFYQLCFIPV
# Procedure: (§1) Cytochrome P450 Inhibition
# (§2) The Cytochrome P450 isoenzyme inhibition was performed according to the publication of Crespi et al. (Anal. Biochem., 1997, 248, 188-190) with use of the baculovirus/insect cell-expressed, human Cytochrome P 450 isoenzymes (2C9 and 2C19).
# [2] = molecular target: T2, human Cytochrome P 450 isoenzyme 2C9 (Homo sapiens, UniProt P11712); assay: Cytochrome P450 Inhibition (2C9); type: in vitro ADME; settings: baculovirus/insect cell-expressed human isoenzyme, according to Crespi et al.; read-out: IC50 CYP 2C9
# T2 construct: host or cells: baculovirus/insect cells
# T2 sequence (P11712 whole entry): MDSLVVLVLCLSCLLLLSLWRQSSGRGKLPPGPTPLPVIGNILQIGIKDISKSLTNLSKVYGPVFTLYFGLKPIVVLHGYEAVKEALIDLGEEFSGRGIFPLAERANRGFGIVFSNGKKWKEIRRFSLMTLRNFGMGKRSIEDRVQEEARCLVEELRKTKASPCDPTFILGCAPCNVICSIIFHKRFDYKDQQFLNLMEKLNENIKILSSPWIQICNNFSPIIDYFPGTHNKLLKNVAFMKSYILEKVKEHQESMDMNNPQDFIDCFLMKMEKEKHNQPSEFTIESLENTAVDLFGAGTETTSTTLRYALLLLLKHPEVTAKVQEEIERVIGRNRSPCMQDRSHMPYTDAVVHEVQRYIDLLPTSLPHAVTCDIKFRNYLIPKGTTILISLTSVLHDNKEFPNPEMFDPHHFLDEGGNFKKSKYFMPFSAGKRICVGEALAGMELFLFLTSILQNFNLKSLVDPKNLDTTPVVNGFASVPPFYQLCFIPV
# Procedure: as §1, §2
# KDR-Kinase (VEGFR-2) = molecular target: T3, KDR-Kinase (VEGFR-2) (Homo sapiens, UniProt P35968); assay: KDR Kinase Inhibition; type: biochemical; settings: GST-kinase domain fusion construct of the KDR kinase; poly(Glu4Tyr) substrate, 32P-ATP, 10 min
# T3 construct: GST-kinase domain fusion construct of the KDR kinase; GST
# T3 sequence (P35968 834-1162 limits assumed, species assumed): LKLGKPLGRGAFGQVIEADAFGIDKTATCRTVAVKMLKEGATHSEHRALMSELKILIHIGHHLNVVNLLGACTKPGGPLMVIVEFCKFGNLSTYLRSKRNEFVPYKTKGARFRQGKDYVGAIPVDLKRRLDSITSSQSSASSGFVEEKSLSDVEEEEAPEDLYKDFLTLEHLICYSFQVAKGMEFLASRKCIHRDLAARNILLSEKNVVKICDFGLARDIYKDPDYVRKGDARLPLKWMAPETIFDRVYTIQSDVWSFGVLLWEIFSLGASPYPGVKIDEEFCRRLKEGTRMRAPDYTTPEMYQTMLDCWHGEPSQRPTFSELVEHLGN
# Procedure: Kinase activity was measured with a GST-kinase domain fusion construct of the KDR kinase according to the following protocol to obtain concentration response curves. Components were added into a microtiterplate in the following sequence: 10 μl of inhibitor in threefold final concentration [3% DMSO in buffer (40 mM TrisCl pH 7.5; 1 mM DTT, 1 mM MnCl2, 10 mM MgCl2, 2.5 Promille Polyethyleneglycol 20000)] and 10 μ, of substrate mixture [24 μM ATP, 24 μg/ml poly(Glu4Tyr) in buffer, specific activity approx. 500 cpm/pmol ^32P-[…]ATP]. Reaction was started by adding 10 μl of enzyme preparation diluted appropriately in buffer that contains 10 μM vanadate. After incubation for exactly 10 min the reaction was stopped by adding of 10 μl stop solution (250 mM EDTA). 10 μl of the reaction mixture were transferred to phosphocellulose filters. The filters were washed in 0.1% phosphoric acid, dried before meltilex-scintillator was applied (Wallac, Perkin-Elmer) and the radioactivity was counted.
SMILES,IC50 [1],IC50 [2],IC50 (KDR-Kinase (VEGFR-2)),melting point
"CCN(CC)C(=O)Nc1cc(CNc2ccccc2C(=O)Nc2ccc3cn(C)nc3c2)ccn1 [Example 1.1, 2-{[2-(3,3-diethyl-ureido)-pyridin-4-ylmethyl]-amino}-N-(2-methyl-2H-indazol-6-yl)-benzamide]",9.9 µM,3.8 µM,0.035 µM,
"CN(C)C(=O)Nc1cc(CNc2ccccc2C(=O)Nc2ccc3c(ccc(=O)n3C)c2)ccn1 [Example 2.2, 2-{[2-(3,3-dimethyl-ureido)-pyridin-4-ylmethyl]-amino}-N-(1-methyl-2-oxo-1,2-dihydro-quinolin-6-yl)-benzamide]",6.4 µM,10 µM,0.036 µM,
"CCN(C)C(=O)Nc1cc(CNc2ccccc2C(=O)Nc2ccc3cn(C)nc3c2)ccn1 [Example 1.4, 2-{[2-(3-ethyl-3-methyl-ureido)-pyridin-4-ylmethyl]-amino}-N-(2-methyl-2H-indazol-6-yl)-benzamide]",26 µM,6.6 µM,0.024 µM,
"CN(C)C(=O)Nc1cc(CNc2ccccc2C(=O)Nc2ccc3cn(C)nc3c2)ccn1 [Example 1.0, 2-{[2-(3,3-dimethyl-ureido)-pyridin-4-ylmethyl]-amino}-N-(2-methyl-2H-indazol-6-yl)-benzamide]",19 µM,6.7 µM,0.025 µM,184 °C
